PubChem BioAssay (NCI)
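Test compounds were applied to cells in 96-well plates for 48 hours at 5 doses. GI50: concentration for 50% inhibition of growth. TGI: concentration producing complete growth inhibition.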

Key:
Assay in all cases: NCI-60 cell line screen, 48 h
HS 578T breast = tested on: HS 578T breast
SK-MEL-5 melanoma = tested on: SK-MEL-5 melanoma
EKVX NSCLC = tested on: EKVX NSCLC
SNB-19 CNS = tested on: SNB-19 CNS
BT-549 breast = tested on: BT-549 breast
HCT-116 colon = tested on: HCT-116 colon
OVCAR-8 ovarian = tested on: OVCAR-8 ovarian
IGROV1 ovarian = tested on: IGROV1 ovarian
UACC-257 melanoma = tested on: UACC-257 melanoma
UACC-62 melanoma = tested on: UACC-62 melanoma
OVCAR-4 ovarian = tested on: OVCAR-4 ovarian
HOP-92 NSCLC = tested on: HOP-92 NSCLC
CCRF-CEM leukemia = tested on: CCRF-CEM leukemia
COLO 205 colon = tested on: COLO 205 colon
SK-OV-3 ovarian = tested on: SK-OV-3 ovarian
NCI-H226 lung = tested on: NCI-H226 lung
OVCAR-5 ovarian = tested on: OVCAR-5 ovarian
MDA-MB-231 breast = tested on: MDA-MB-231 breast
NCI-H460 lung = tested on: NCI-H460 lung
CAKI-1 renal = tested on: CAKI-1 renal
A549 NSCLC = tested on: A549 NSCLC
OVCAR-3 ovarian = tested on: OVCAR-3 ovarian
MDA-MB-435 = tested on: MDA-MB-435
SW-620 colon = tested on: SW-620 colon
KM12 colon = tested on: KM12 colon
NCI-H23 lung = tested on: NCI-H23 lung
A498 renal = tested on: A498 renal
U251 CNS = tested on: U251 CNS
TK-10 renal = tested on: TK-10 renal
SF-539 CNS = tested on: SF-539 CNS
SK-MEL-2 melanoma = tested on: SK-MEL-2 melanoma
SF-295 CNS = tested on: SF-295 CNS
HCC-2998 colon = tested on: HCC-2998 colon
MCF7 breast = tested on: MCF7 breast
NCI/ADR-RES ovarian = tested on: NCI/ADR-RES ovarian
HOP-62 NSCLC = tested on: HOP-62 NSCLC
K-562 leukemia = tested on: K-562 leukemia
HL-60(TB) leukemia = tested on: HL-60(TB) leukemia
MALME-3M melanoma = tested on: MALME-3M melanoma
HT29 colon = tested on: HT29 colon
RPMI-8226 leukemia = tested on: RPMI-8226 leukemia
SNB-75 CNS = tested on: SNB-75 CNS
PC-3 prostate = tested on: PC-3 prostate
HCT-15 colon = tested on: HCT-15 colon
786-0 renal = tested on: 786-0 renal
RXF 393 renal = tested on: RXF 393 renal
SR leukemia = tested on: SR leukemia
SN12C renal = tested on: SN12C renal
SF-268 CNS = tested on: SF-268 CNS
T-47D breast = tested on: T-47D breast
UO-31 renal = tested on: UO-31 renal
ACHN renal = tested on: ACHN renal
LOX IMVI melanoma = tested on: LOX IMVI melanoma
M14 melanoma = tested on: M14 melanoma
MOLT-4 leukemia = tested on: MOLT-4 leukemia
NCI-H522 lung = tested on: NCI-H522 lung
DU-145 prostate = tested on: DU-145 prostate
SK-MEL-28 melanoma = tested on: SK-MEL-28 melanoma

O=C(O)c1ccc(S(=O)(=O)Nc2ccc3oc4c(c3c2)C(=O)CCC4)cc1
GI50 (HS 578T breast): > 100 µM
TGI (HS 578T breast): > 100 µM
GI50 (SK-MEL-5 melanoma): > 100 µM
TGI (SK-MEL-5 melanoma): > 100 µM
GI50 (EKVX NSCLC): > 100 µM
TGI (EKVX NSCLC): > 100 µM
GI50 (SNB-19 CNS): > 100 µM
TGI (SNB-19 CNS): > 100 µM
GI50 (BT-549 breast): > 100 µM
TGI (BT-549 breast): > 100 µM
GI50 (HCT-116 colon): > 100 µM
TGI (HCT-116 colon): > 100 µM
GI50 (OVCAR-8 ovarian): > 100 µM
TGI (OVCAR-8 ovarian): > 100 µM
GI50 (IGROV1 ovarian): > 100 µM
TGI (IGROV1 ovarian): > 100 µM
GI50 (UACC-257 melanoma): > 100 µM
TGI (UACC-257 melanoma): > 100 µM
GI50 (UACC-62 melanoma): > 100 µM
TGI (UACC-62 melanoma): > 100 µM
GI50 (OVCAR-4 ovarian): > 100 µM
TGI (OVCAR-4 ovarian): > 100 µM
GI50 (HOP-92 NSCLC): > 100 µM
TGI (HOP-92 NSCLC): > 100 µM
GI50 (CCRF-CEM leukemia): > 100 µM
TGI (CCRF-CEM leukemia): > 100 µM
GI50 (COLO 205 colon): > 100 µM
TGI (COLO 205 colon): > 100 µM
GI50 (SK-OV-3 ovarian): > 100 µM
TGI (SK-OV-3 ovarian): > 100 µM
GI50 (NCI-H226 lung): > 100 µM
TGI (NCI-H226 lung): > 100 µM
GI50 (OVCAR-5 ovarian): > 100 µM
TGI (OVCAR-5 ovarian): > 100 µM
GI50 (MDA-MB-231 breast): > 100 µM
TGI (MDA-MB-231 breast): > 100 µM
GI50 (NCI-H460 lung): > 100 µM
TGI (NCI-H460 lung): > 100 µM
GI50 (CAKI-1 renal): > 100 µM
TGI (CAKI-1 renal): > 100 µM
GI50 (A549 NSCLC): > 100 µM
TGI (A549 NSCLC): > 100 µM
GI50 (OVCAR-3 ovarian): > 100 µM
TGI (OVCAR-3 ovarian): > 100 µM
GI50 (MDA-MB-435): > 100 µM
TGI (MDA-MB-435): > 100 µM
GI50 (SW-620 colon): > 100 µM
TGI (SW-620 colon): > 100 µM
GI50 (KM12 colon): > 100 µM
TGI (KM12 colon): > 100 µM
GI50 (NCI-H23 lung): > 100 µM
TGI (NCI-H23 lung): > 100 µM
GI50 (A498 renal): > 100 µM
TGI (A498 renal): > 100 µM
GI50 (U251 CNS): > 100 µM
TGI (U251 CNS): > 100 µM
GI50 (TK-10 renal): > 100 µM
TGI (TK-10 renal): > 100 µM
GI50 (SF-539 CNS): > 100 µM
TGI (SF-539 CNS): > 100 µM
GI50 (SK-MEL-2 melanoma): > 100 µM
TGI (SK-MEL-2 melanoma): > 100 µM
GI50 (SF-295 CNS): > 100 µM
TGI (SF-295 CNS): > 100 µM
GI50 (HCC-2998 colon): > 100 µM
TGI (HCC-2998 colon): > 100 µM
GI50 (MCF7 breast): > 100 µM
TGI (MCF7 breast): > 100 µM
GI50 (NCI/ADR-RES ovarian): > 100 µM
TGI (NCI/ADR-RES ovarian): > 100 µM
GI50 (HOP-62 NSCLC): > 100 µM
TGI (HOP-62 NSCLC): > 100 µM
GI50 (K-562 leukemia): > 100 µM
TGI (K-562 leukemia): > 100 µM
GI50 (HL-60(TB) leukemia): > 100 µM
TGI (HL-60(TB) leukemia): > 100 µM
GI50 (MALME-3M melanoma): > 100 µM
TGI (MALME-3M melanoma): > 100 µM
GI50 (HT29 colon): > 100 µM
TGI (HT29 colon): > 100 µM
GI50 (RPMI-8226 leukemia): > 100 µM
TGI (RPMI-8226 leukemia): > 100 µM
GI50 (SNB-75 CNS): > 100 µM
TGI (SNB-75 CNS): > 100 µM
GI50 (PC-3 prostate): > 100 µM
TGI (PC-3 prostate): > 100 µM
GI50 (HCT-15 colon): > 100 µM
TGI (HCT-15 colon): > 100 µM
GI50 (786-0 renal): > 100 µM
TGI (786-0 renal): > 100 µM
GI50 (RXF 393 renal): > 100 µM
TGI (RXF 393 renal): > 100 µM
GI50 (SR leukemia): > 100 µM
TGI (SR leukemia): > 100 µM
GI50 (SN12C renal): > 100 µM
TGI (SN12C renal): > 100 µM
GI50 (SF-268 CNS): > 100 µM
TGI (SF-268 CNS): > 100 µM
GI50 (T-47D breast): > 100 µM
TGI (T-47D breast): > 100 µM
GI50 (UO-31 renal): > 100 µM
TGI (UO-31 renal): > 100 µM
GI50 (ACHN renal): > 100 µM
TGI (ACHN renal): > 100 µM
GI50 (LOX IMVI melanoma): > 100 µM
TGI (LOX IMVI melanoma): > 100 µM
GI50 (M14 melanoma): > 100 µM
TGI (M14 melanoma): > 100 µM
GI50 (MOLT-4 leukemia): > 100 µM
TGI (MOLT-4 leukemia): > 100 µM
GI50 (NCI-H522 lung): > 100 µM
TGI (NCI-H522 lung): > 100 µM
GI50 (DU-145 prostate): > 100 µM
TGI (DU-145 prostate): > 100 µM
GI50 (SK-MEL-28 melanoma): > 100 µM
TGI (SK-MEL-28 melanoma): > 100 µM
